Assay results reported in US20080188421A1, “Hunter-Killer Peptides and Methods of Use” (priority 2004, published 2008).

Tests used:
Kaposi's sarcoma cells [1] = assay: Viability of KS cells (Live/Dead assay); type: cell-based; details: KS cells treated with peptides at 12 ug/mL in DMEM without serum
Description: (§1) KS cells were plated in DMEM with 10% FBS in 96-well plates. Media was replaced with 100 uL of DMEM without serum and cells were treated with peptides at 12 ug/mL: The peptides utilized had two distinct disulfide links and are shown below. The other peptides utilized in the studies and methods for tumor studies are essentially as reported in Nature Medicine 5(9): 1032-1038, 1999, which is incorporated herein by reference in its entirety. Crude peptide was unpurified peptide composed monomer and dimer and other species-oxidized forms of the peptide.

Kaposi's sarcoma cells [2] = assay: Mitochondrial function in KS cells (WST-1 assay); type: cell-based; details: KS cells treated with peptides at 12 ug/mL; for mitochondrial function (remaining) in treated KS cell culture: function reduced to
Description: as §1
In order to determine the decrease in mitochondrial function in tumor cells targeted with HK-1, which has the structure (CNGRC-GG-d(KLAKLAK)2)2 (SEQ ID NO: 9), Kaposi's sarcoma cells were treated with HK-1, with the corresponding monomeric homing conjugate CNGRC-GG-d(KLAKLAK)2 (SEQ ID NO: 20), with a crude preparation of the CNGRC homing peptide monomers, with an RGD peptide preparation, with a preparation including KLAKLAK (SEQ ID NO: 5) antimicrobial peptides, and with a CNGR control preparation.

mitochondrial membranes = details: at a concentration of 10 μM; cited from earlier work

Substance	cell death (Kaposi's sarcoma cells [1])	reduction in mitochondrial function (Kaposi's sarcoma cells [2]) [%]	mitochondrial function (remaining) in treated KS cell culture (Kaposi's sarcoma cells [2])	mitochondrial swelling (mitochondrial membranes)
CNGRC-GG-d(KLAKLAK)2	approximately 10%	34	over 65%	–
(CNGRC-GG-d(KLAKLAK)2)2 [HK-1]	~50%	63	37%	–
d(KLAKLAK)2	–	–	–	marked mitochondrial swelling
